Measured values reported in the NIST ThermoML archive (doi:10.1021/je100757w).
Numbers after ± are expanded uncertainties.

Test: xn = mol fraction of the nth substance listed
Settings: for surface tension liquid-gas: Ring tensiometer; for mass density: 101.3 kPa, Liquid

COCCOCCOC [2,5,8-trioxanonane] + O
Settings	mass density [kg/m3]	surface tension liquid-gas [mN/m]
298.15 K, x1 = 0.0047	–	49.27 ± 0.86
298.15 K, x1 = 0.0141	–	44.11 ± 0.81
298.15 K, x1 = 0.0188	1002.55 ± 0.26	–
298.15 K, x1 = 0.0279	–	42.26 ± 0.79
298.15 K, x1 = 0.0456	–	39.85 ± 0.78
298.15 K, x1 = 0.0543	1006.8 ± 0.28	–
298.15 K, x1 = 0.0874	–	35.99 ± 0.75
298.15 K, x1 = 0.1184	–	31.62 ± 0.73
298.15 K, x1 = 0.1289	1002.43 ± 0.27	–
298.15 K, x1 = 0.1582	–	30.69 ± 0.72
298.15 K, x1 = 0.1903	994.76 ± 0.29	–
298.15 K, x1 = 0.2241	–	30.45 ± 0.72
298.15 K, x1 = 0.3191	–	29.9 ± 0.72
298.15 K, x1 = 0.3195	978.75 ± 0.37	–
298.15 K, x1 = 0.4068	970.55 ± 0.42	–
298.15 K, x1 = 0.4283	–	28.69 ± 0.71
298.15 K, x1 = 0.4993	963.15 ± 0.48	–
298.15 K, x1 = 0.5164	–	28.08 ± 0.71
298.15 K, x1 = 0.621	955.66 ± 0.56	–
298.15 K, x1 = 0.6493	–	27.9 ± 0.72
298.15 K, x1 = 0.7181	950.74 ± 0.62	–
298.15 K, x1 = 0.7841	–	26.77 ± 0.72
298.15 K, x1 = 0.8097	946.27 ± 0.69	–
298.15 K, x1 = 0.8737	–	26.29 ± 0.72
298.15 K, x1 = 0.9099	942.33 ± 0.76	–
298.15 K, x1 = 0.9228	–	25.69 ± 0.71
298.15 K, x1 = 0.9551	940.97 ± 0.8	–
298.15 K, x1 = 0.9704	–	25.19 ± 0.71
298.15 K, x1 = 1	940.01 ± 0.83	24.56 ± 0.71
308.15 K, x1 = 0.0014	–	53.47 ± 0.88
308.15 K, x1 = 0.0038	–	50.51 ± 0.85
308.15 K, x1 = 0.0085	–	47.12 ± 0.83
308.15 K, x1 = 0.0142	–	44.72 ± 0.81
308.15 K, x1 = 0.0188	998.41 ± 0.26	–
308.15 K, x1 = 0.0279	–	41.3 ± 0.79
308.15 K, x1 = 0.0457	–	38.99 ± 0.77
308.15 K, x1 = 0.0543	1001.43 ± 0.26	–
308.15 K, x1 = 0.0875	–	33.65 ± 0.74
308.15 K, x1 = 0.12	–	32.57 ± 0.73
308.15 K, x1 = 0.1289	996.23 ± 0.28	–
308.15 K, x1 = 0.1602	–	31.09 ± 0.72
308.15 K, x1 = 0.1903	987.3 ± 0.31	–
308.15 K, x1 = 0.2265	–	29.75 ± 0.72
308.15 K, x1 = 0.3195	970.44 ± 0.4	–
308.15 K, x1 = 0.3217	–	29.19 ± 0.72
308.15 K, x1 = 0.4068	961.72 ± 0.45	–
308.15 K, x1 = 0.4305	–	28.79 ± 0.72
308.15 K, x1 = 0.4993	954.06 ± 0.51	–
308.15 K, x1 = 0.5179	–	28.41 ± 0.72
308.15 K, x1 = 0.621	945.87 ± 0.58	–
308.15 K, x1 = 0.6498	–	28.3 ± 0.72
308.15 K, x1 = 0.7181	940.7 ± 0.65	–
308.15 K, x1 = 0.7831	–	27.7 ± 0.72
308.15 K, x1 = 0.8097	936.34 ± 0.71	–
308.15 K, x1 = 0.8744	–	27.58 ± 0.73
308.15 K, x1 = 0.9099	932.39 ± 0.79	–
308.15 K, x1 = 0.9165	–	27.54 ± 0.73
308.15 K, x1 = 0.9551	931.05 ± 0.82	–
308.15 K, x1 = 0.9645	–	27.43 ± 0.73
308.15 K, x1 = 1	930.03 ± 0.86	27.65 ± 0.73
318.15 K, x1 = 0.0015	–	55.76 ± 0.9
318.15 K, x1 = 0.0038	–	51.77 ± 0.87
318.15 K, x1 = 0.0081	–	48.33 ± 0.84
318.15 K, x1 = 0.0135	–	45.61 ± 0.82
318.15 K, x1 = 0.0188	994.3 ± 0.27	–
318.15 K, x1 = 0.0269	–	41.95 ± 0.79
318.15 K, x1 = 0.0444	–	39.33 ± 0.77
318.15 K, x1 = 0.0543	996.25 ± 0.27	–
318.15 K, x1 = 0.0857	–	34.62 ± 0.74
318.15 K, x1 = 0.1091	–	28.86 ± 0.71
318.15 K, x1 = 0.1289	989.1 ± 0.3	–
318.15 K, x1 = 0.156	–	26.65 ± 0.7
318.15 K, x1 = 0.1903	979.79 ± 0.34	–
318.15 K, x1 = 0.2194	–	25.34 ± 0.7
318.15 K, x1 = 0.3174	–	24.45 ± 0.69
318.15 K, x1 = 0.3195	961.72 ± 0.42	–
318.15 K, x1 = 0.4068	952.75 ± 0.48	–
318.15 K, x1 = 0.4248	–	24.26 ± 0.69
318.15 K, x1 = 0.4993	944.64 ± 0.53	–
318.15 K, x1 = 0.511	–	24.18 ± 0.7
318.15 K, x1 = 0.621	936.5 ± 0.61	–
318.15 K, x1 = 0.6513	–	23.87 ± 0.7
318.15 K, x1 = 0.7181	931.28 ± 0.67	–
318.15 K, x1 = 0.7915	–	23.64 ± 0.7
318.15 K, x1 = 0.8097	926.76 ± 0.74	–
318.15 K, x1 = 0.8844	–	23.5 ± 0.7
318.15 K, x1 = 0.9099	922.58 ± 0.81	–
318.15 K, x1 = 0.9137	–	23.48 ± 0.7
318.15 K, x1 = 0.9547	–	23.46 ± 0.7
318.15 K, x1 = 0.9551	921.12 ± 0.84	–
318.15 K, x1 = 1	919.99 ± 0.88	23.44 ± 0.71
